{"source": "patent US11274073B2", "about": "“TRPV1 modulator compounds” (ANTALGENICS, S.L., priority 2017, dated 2022)"}
{"target": "T1, rat TRPV1 channel (Rattus norvegicus, UniProt O35433)", "T1 construct": "expressed in transfected cells; host or cells: SH-SY5Y (human neuroblastoma) stably expressing rat TRPV1, under puromycin selection", "T1 sequence (O35433 whole entry)": "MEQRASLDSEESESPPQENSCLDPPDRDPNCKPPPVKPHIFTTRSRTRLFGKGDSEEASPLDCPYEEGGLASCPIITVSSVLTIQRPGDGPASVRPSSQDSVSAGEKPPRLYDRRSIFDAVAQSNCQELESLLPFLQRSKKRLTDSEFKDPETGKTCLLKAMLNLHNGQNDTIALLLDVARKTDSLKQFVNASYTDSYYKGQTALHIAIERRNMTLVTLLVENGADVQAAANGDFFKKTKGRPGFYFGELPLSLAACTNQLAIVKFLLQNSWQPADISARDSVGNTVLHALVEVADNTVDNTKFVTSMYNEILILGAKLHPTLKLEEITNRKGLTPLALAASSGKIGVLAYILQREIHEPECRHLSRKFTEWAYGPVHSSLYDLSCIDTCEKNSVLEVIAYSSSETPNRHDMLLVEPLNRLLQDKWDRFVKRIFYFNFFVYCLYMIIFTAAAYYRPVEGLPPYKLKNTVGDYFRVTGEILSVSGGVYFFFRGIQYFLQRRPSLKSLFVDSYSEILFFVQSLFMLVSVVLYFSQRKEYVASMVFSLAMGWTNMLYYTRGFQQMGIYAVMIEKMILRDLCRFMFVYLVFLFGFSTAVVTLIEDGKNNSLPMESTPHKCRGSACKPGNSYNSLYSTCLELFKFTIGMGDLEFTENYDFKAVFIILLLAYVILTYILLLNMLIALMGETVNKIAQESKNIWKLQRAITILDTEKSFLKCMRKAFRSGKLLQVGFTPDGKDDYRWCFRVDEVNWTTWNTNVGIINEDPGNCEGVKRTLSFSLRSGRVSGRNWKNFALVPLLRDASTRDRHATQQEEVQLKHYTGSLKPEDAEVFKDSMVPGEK", "assay": "Calcium microfluorometry assay on TRPV1-SH-SY5Y cells, single concentration 10 μM", "assay_type": "cell-based", "settings": "compound 10 μM before stimulation with 10 μM capsaicin, RR (10 μM Ruthenium Red) = 100%", "method": "(§1) The activity of the compounds was determined on TRPV1 expressing cells (TRPV1-SH-SY5Y) by Calcium microfluorometry assay.\n(§2) SH-SY5Y cells stably expressing rat TRPV1 channel (SH-SY5Y-TRPV1) were grown in Earle's minimum essential medium (MEM) containing 10% (v/v) of FCS, 1% nonessential amino acids, 2 mM L-glutamine, 100 μg/ml streptomycin, 100 U/ml penicillin, and 0.4 μg/ml puromycin in a humidity-controlled incubator with 5% CO2 and at 37° C. For fluorescence assays, cells expressing TRPV1 channel (TRPV1-SH-SY5Y) were seeded in 96-well plates (Corning Incorporated, Corning, N.Y.) at a cell density of 40,000 cells 2 days before treatment. The day of treatment the medium was replaced with 100 μL of the dye loading solution Fluo-4 NW supplemented with probenecid 2.5 mM. After incubation at 37° C. in a humidified atmosphere of 5% CO2 for 60 minutes, plates were transferred to a fluorescence plate reader (Polastar Omega BMG Labtech). The baseline fluorescence of Fluo-4 dye ([…]) was recorded for 4 cycles. […] The antagonist (10 μM Ruthenium Red for TRPV1) was added for the blockade. The changes in fluorescence intensity were recorded during 10 cycles more.", "units": {"TRPV1 blockage at 10 μM (% ± SD)": "%"}}
{"smiles": "COc1cc(CNC(=O)COC(=O)CC/C(C)=C/CC/C(C)=C/CC/C=C(\\C)CCC=C(C)CCC=C(C)C)c(I)cc1O", "note": "(stereo in doubt) [Ex-53, (4E,8E,12E,16E)-2-((4-hydroxy-2-iodo-5-methoxy-benzyl)amino)-2-oxoethyl 4,8,13,17,21-pentamethyl-docosa-4,8,12,16,20-pentaenoate]", "TRPV1 blockage at 10 μM (% ± SD)": "31.05 ± 1.46"}
{"smiles": "CCCC(=O)OCC(=O)NCc1cc(OC)c(O)cc1I", "note": "[Ex-17, 2-((4-hydroxy-2-iodo-5-methoxybenzyl)amino)-2-oxoethyl butyrate]", "TRPV1 blockage at 10 μM (% ± SD)": "14.44 ± 0.27"}
{"smiles": "CCCCC(=O)OCC(=O)NCc1cc(OC)c(O)cc1I", "note": "[Ex-19, 2-((4-hydroxy-2-iodo-5-methoxybenzyl)amino)-2-oxoethyl pentanoate]", "TRPV1 blockage at 10 μM (% ± SD)": "21.85 ± 2.85"}
{"smiles": "COc1cc(CNC(=O)COC(=O)CC(C)C)c(I)cc1O", "note": "[Ex-21, 2-((4-hydroxy-2-iodo-5-methoxybenzyl)amino)-2-oxoethyl 3-methyl-butanoate]", "TRPV1 blockage at 10 μM (% ± SD)": "8.35 ± 4.10"}
{"smiles": "CCCCCC(=O)OCC(=O)NCc1cc(OC)c(O)cc1I", "note": "[Ex-23, 2-((4-hydroxy-2-iodo-5-methoxybenzyl)amino)-2-oxoethyl hexanoate]", "TRPV1 blockage at 10 μM (% ± SD)": "23.14 ± 7.81"}
{"smiles": "C/C=C/C=C/C(=O)OCC(=O)NCc1cc(OC)c(O)cc1I", "note": "[Ex-25, (2E,4E)-2-((4-hydroxy-2-iodo-5-methoxybenzyl)amino)-2-oxoethyl hexa-2,4-dienoate]", "TRPV1 blockage at 10 μM (% ± SD)": "13.98 ± 5.98"}
{"smiles": "CCCCCCC(=O)OCC(=O)NCc1cc(OC)c(O)cc1I", "note": "[Ex-27, 2-((4-hydroxy-2-iodo-5-methoxybenzyl)amino)-2-oxoethyl heptanoate]", "TRPV1 blockage at 10 μM (% ± SD)": "21.80 ± 5.41"}
{"smiles": "CCCCCCCC(=O)OCC(=O)NCc1cc(OC)c(O)cc1I", "note": "[Ex-29, 2-((4-hydroxy-2-iodo-5-methoxybenzyl)amino)-2-oxoethyl octanoate]", "TRPV1 blockage at 10 μM (% ± SD)": "31.23 ± 8.34"}
{"smiles": "CCCCCCCCC(=O)OCC(=O)NCc1cc(OC)c(O)cc1I", "note": "[Ex-31, 2-((4-hydroxy-2-iodo-5-methoxybenzyl)amino)-2-oxoethyl nonanoate]", "TRPV1 blockage at 10 μM (% ± SD)": "25.23 ± 7.63"}
{"smiles": "CCCCCCCCCC(=O)OCC(=O)NCc1cc(OC)c(O)cc1I", "note": "[Ex-35, 2-((4-hydroxy-2-iodo-5-methoxybenzyl)amino)-2-oxoethyl decanoate]", "TRPV1 blockage at 10 μM (% ± SD)": "20.48 ± 9.67"}
{"smiles": "CCCCCCCCCCCCCCC(=O)OCC(=O)NCc1cc(OC)c(O)cc1I", "note": "[Ex-39, 2-((4-hydroxy-2-iodo-5-methoxybenzyl)amino)-2-oxoethyl pentadecanoate]", "TRPV1 blockage at 10 μM (% ± SD)": "21.82 ± 4.75"}
{"smiles": "CCCCCCCCCCCCCCCCCC(=O)OCC(=O)NCc1cc(OC)c(O)cc1I", "note": "[Ex-41, 2-((4-hydroxy-2-iodo-5-methoxybenzyl)amino)-2-oxoethyl stearate]", "TRPV1 blockage at 10 μM (% ± SD)": "38.89 ± 3.53"}
{"smiles": "CCCCCCCC/C=C\\CCCCCCCC(=O)OCC(=O)NCc1cc(OC)c(O)cc1I", "note": "[Ex-43, 2-((4-hydroxy-2-iodo-5-methoxybenzyl)amino)-2-oxoethyl oleate]", "TRPV1 blockage at 10 μM (% ± SD)": "45.68 ± 14.26"}
{"smiles": "CCCCCC[C@@H](O)C/C=C\\CCCCCCCC(=O)OCC(=O)NCc1cc(OC)c(O)cc1I", "note": "[Ex-45, (R,Z)-2-((4-hydroxy-2-iodo-5-methoxybenzyl)amino)-2-oxoethyl 12-hydroxyoctadec-9-enoate]", "TRPV1 blockage at 10 μM (% ± SD)": "21.74 ± 7.05"}
{"smiles": "CCCCCC[C@H](C/C=C\\CCCCCCCC(=O)OCC(=O)NCc1cc(OC)c(O)cc1I)OC(=O)Cc1ccccc1", "note": "[Ex-47, (Z)-2-((4-hydroxy-2-iodo-5-methoxybenzyl)amino)-2-oxoethyl 12-(2-phenyl-acetoxy)octadec-9-enoate]", "TRPV1 blockage at 10 μM (% ± SD)": "63.29 ± 12.80"}
{"smiles": "CCCCCCCC/C=C\\CCCCCCCCCCCC(=O)OCC(=O)NCc1cc(OC)c(O)cc1I", "note": "[Ex-49, (Z)-2-((4-hydroxy-2-iodo-5-methoxybenzyl)amino)-2-oxoethyl docos-13-enoate]", "TRPV1 blockage at 10 μM (% ± SD)": "34.94 ± 5.51"}
{"smiles": "CCCCC/C=C\\C/C=C\\C/C=C\\C/C=C\\CCCC(=O)OCC(=O)NCc1cc(OC)c(O)cc1I", "note": "[Ex-51, (5Z,8Z,11Z,14Z)-2-((4-hydroxy-2-iodo-5-methoxy-benzyl)amino)-2-oxoethyl icosa-5,8,11,14-tetraenoate]", "TRPV1 blockage at 10 μM (% ± SD)": "30.85 ± 5.87"}
{"smiles": "CC(C)=CCC/C(C)=C/C(=O)OCC(=O)NCCc1cc(O)c(O)cc1I", "note": "[Ex-59, (E)-2-((4,5-dihydroxy-2-iodophenethyl)amino)-2-oxoethyl 3,7-dimethylocta-2,6-dienoate]", "TRPV1 blockage at 10 μM (% ± SD)": "46.3 ± 12.70"}
{"smiles": "CCCCCCCC/C=C\\CCCCCCCC(=O)OCC(=O)NCCc1cc(O)c(O)cc1I", "note": "[Ex-63, 2-((4,5-dihydroxy-2-iodophenethyl)amino)-2-oxoethyl oleate]", "TRPV1 blockage at 10 μM (% ± SD)": "1.13 ± 5.56"}
{"target": "T1, rat TRPV1 channel", "assay": "Calcium microfluorometry assay on TRPV1-SH-SY5Y cells, single concentration 10 μM", "assay_type": "cell-based", "settings": "compound 10 μM, Fluo-4 NW fluorescence, Cap (10 μM capsaicin) = 100%", "method": "as §1, §2", "units": {"TRPV1 activation at 10 μM (% ± SD)": "%"}}
{"smiles": "COc1cc(CNC(=O)CCCC/C=C/C(C)C)ccc1O", "note": "[Capsaicin, reference compound]", "TRPV1 activation at 10 μM (% ± SD)": 100}
{"smiles": "CCCC(=O)OCC(=O)NCc1ccc(O)c(OC)c1", "note": "[Ex-16, 2-((4-hydroxy-3-methoxybenzyl)amino)-2-oxoethyl butyrate]", "TRPV1 activation at 10 μM (% ± SD)": "25.59 ± 4.29"}
{"smiles": "CCCCC(=O)OCC(=O)NCc1ccc(O)c(OC)c1", "note": "[Ex-18, 2-((4-hydroxy-3-methoxy-benzyl)amino)-2-oxoethyl pentanoate]", "TRPV1 activation at 10 μM (% ± SD)": "29.43 ± 14.90"}
{"smiles": "COc1cc(CNC(=O)COC(=O)CC(C)C)ccc1O", "note": "[Ex-20, 2-((4-hydroxy-3-methoxy-benzyl)amino)-2-oxoethyl 3-methylbutanoate]", "TRPV1 activation at 10 μM (% ± SD)": "35.82 ± 3.48"}
{"smiles": "CCCCCC(=O)OCC(=O)NCc1ccc(O)c(OC)c1", "note": "[Ex-22, 2-((4-hydroxy-3-methoxy-benzyl)amino)-2-oxoethyl hexanoate]", "TRPV1 activation at 10 μM (% ± SD)": "73.32 ± 12.83"}
{"smiles": "C/C=C/C=C/C(=O)OCC(=O)NCc1ccc(O)c(OC)c1", "note": "[Ex-24, (2E,4E)-2-((4-hydroxy-3-methoxybenzyl)amino)-2-oxoethyl hexa-2,4-dienoate]", "TRPV1 activation at 10 μM (% ± SD)": "75.59 ± 6.25"}
{"smiles": "CCCCCCC(=O)OCC(=O)NCc1ccc(O)c(OC)c1", "note": "[Ex-26, 2-((4-hydroxy-3-methoxy-benzyl)amino)-2-oxoethyl heptanoate]", "TRPV1 activation at 10 μM (% ± SD)": "74.41 ± 17.66"}
{"smiles": "CCCCCCCC(=O)OCC(=O)NCc1ccc(O)c(OC)c1", "note": "[Ex-28, 2-((4-hydroxy-3-methoxy-benzyl)amino)-2-oxoethyl octanoate]", "TRPV1 activation at 10 μM (% ± SD)": "54.08 ± 4.09"}
{"smiles": "CCCCCCCCC(=O)OCC(=O)NCc1ccc(O)c(OC)c1", "note": "[Ex-30, 2-((4-hydroxy-3-methoxybenzyl)amino)-2-oxoethyl nonanoate]", "TRPV1 activation at 10 μM (% ± SD)": "68.45 ± 7.20"}
{"smiles": "CCCCCCCCCC(=O)OCC(=O)NCc1ccc(O)c(OC)c1", "note": "[Ex-34, 2-((4-hydroxy-3-methoxy-benzyl)amino)-2-oxoethyl decanoate]", "TRPV1 activation at 10 μM (% ± SD)": "47.91 ± 10.32"}
{"smiles": "CCCCCCCCCCCCCCC(=O)OCC(=O)NCc1ccc(O)c(OC)c1", "note": "[Ex-38, 2-((4-hydroxy-3-methoxy-benzyl)amino)-2-oxoethyl pentadecanoate]", "TRPV1 activation at 10 μM (% ± SD)": "75.96 ± 9.86"}
{"smiles": "CCCCCCCCCCCCCCCCCC(=O)OCC(=O)NCc1ccc(O)c(OC)c1", "note": "[Ex-40, 2-((4-hydroxy-3-methoxy-benzyl)amino)-2-oxoethyl stearate]", "TRPV1 activation at 10 μM (% ± SD)": "54.74 ± 17.75"}
{"smiles": "CCCCCCCC/C=C\\CCCCCCCC(=O)OCC(=O)NCc1ccc(O)c(OC)c1", "note": "[Ex-42, 2-((4-hydroxy-3-methoxy-benzyl)amino)-2-oxoethyl oleate]", "TRPV1 activation at 10 μM (% ± SD)": "77.19 ± 11.95"}
{"smiles": "CCCCCC[C@@H](O)C/C=C\\CCCCCCCC(=O)OCC(=O)NCc1ccc(O)c(OC)c1", "note": "[Ex-44, (R,Z)-2-((4-hydroxy-3-methoxybenzyl)amino)-2-oxoethyl 12-hydroxyoctadec-9-enoate]", "TRPV1 activation at 10 μM (% ± SD)": "60.84 ± 12.80"}
{"smiles": "CCCCCC[C@H](C/C=C\\CCCCCCCC(=O)OCC(=O)NCc1ccc(O)c(OC)c1)OC(=O)Cc1ccccc1", "note": "[Ex-46, (Z)-2-((4-hydroxy-3-methoxy-benzyl)amino)-2-oxoethyl 12-(2-phenylacetoxy)octadec-9-enoate]", "TRPV1 activation at 10 μM (% ± SD)": "33.16 ± 9.97"}
{"smiles": "CCCCCCCC/C=C\\CCCCCCCCCCCC(=O)OCC(=O)NCc1ccc(O)c(OC)c1", "note": "[Ex-48, (Z)-2-((4-hydroxy-3-methoxybenzyl)amino)-2-oxoethyl docos-13-enoate]", "TRPV1 activation at 10 μM (% ± SD)": "47.40 ± 14.56"}
{"smiles": "CCCCC/C=C\\C/C=C\\C/C=C\\C/C=C\\CCCC(=O)OCC(=O)NCc1ccc(O)c(OC)c1", "note": "[Ex-50, (5Z,8Z,11Z,14Z)-2-((4-hydroxy-3-methoxy-benzyl)amino)-2-oxoethyl icosa-5,8,11,14-tetraenoate]", "TRPV1 activation at 10 μM (% ± SD)": "73.80 ± 7.42"}
{"smiles": "CC(C)=CCC/C(C)=C/C(=O)OCC(=O)NCCc1ccc(O)c(O)c1", "note": "[Ex-58, (E)-2-((3,4-dihydroxyphenethyl)amino)-2-oxoethyl 3,7-dimethylocta-2,6-dienoate]", "TRPV1 activation at 10 μM (% ± SD)": "88.12 ± 9.76"}
{"smiles": "CCCCCCCC/C=C\\CCCCCCCC(=O)OCC(=O)NCCc1ccc(O)c(O)c1", "note": "[Ex-62, 2-((3,4-dihydroxyphenethyl)-amino)-2-oxoethyl oleate]", "TRPV1 activation at 10 μM (% ± SD)": "78.48 ± 4.61"}
{"smiles": "CCCCC/C=C\\C/C=C\\C/C=C\\C/C=C\\CCCC(=O)OCC(=O)NCCc1ccc(O)c(O)c1", "note": "[Ex-64, (5Z,8Z,11Z,14Z)-2-((3,4-dihydroxyphenethyl)amino)-2-oxoethyl icosa-5,8,11,14-tetraenoate]", "TRPV1 activation at 10 μM (% ± SD)": "79.05 ± 11.25"}
